Molecules are shown by their SMILES. Where a name gives a salt, the structure may show the parent alone.

IC50 and Kb data for 17 molecules are collected here from patent US20190152992A1, “BENZODIOXANE DERIVATIVES AND THEIR PHARMACEUTICAL USE” (Orion Corporation, priority 2016, published 2019).

Test [1] deals with T1, human alpha2A receptors (Homo sapiens, UniProt P08913).
T1 sequence (P08913 1-465): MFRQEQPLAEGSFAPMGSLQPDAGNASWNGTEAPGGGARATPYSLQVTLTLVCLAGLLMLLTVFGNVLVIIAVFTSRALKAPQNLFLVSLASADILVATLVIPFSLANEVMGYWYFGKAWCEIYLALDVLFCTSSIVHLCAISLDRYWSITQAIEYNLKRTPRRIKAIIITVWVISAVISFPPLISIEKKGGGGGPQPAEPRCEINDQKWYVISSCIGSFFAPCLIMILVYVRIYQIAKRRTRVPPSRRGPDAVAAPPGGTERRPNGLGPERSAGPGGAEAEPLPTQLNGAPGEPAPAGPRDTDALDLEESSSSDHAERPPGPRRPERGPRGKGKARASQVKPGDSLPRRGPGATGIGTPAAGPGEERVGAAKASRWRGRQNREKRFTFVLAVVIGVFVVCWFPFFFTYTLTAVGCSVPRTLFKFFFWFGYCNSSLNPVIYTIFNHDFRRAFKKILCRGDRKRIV
Kind of test: cell-based.
Description: Experiment 1: Determination of alpha2A and alpha2C Antagonistic Activity In Vitro
The growth medium was removed and the cells were incubated with the test compounds and the FLIPR Calcium 6 Assay reagent (Molecular Devices, CA, USA) for 2 h at 37° C. in dark. The test compounds (concentrations in cells 100 pM-10 μM) were dissolved in Probenecid-Ringer consisting of 150 mM NaCl, 3 mM KCl, 1.2 mM MgCl2, 1 mM CaCl2, 5 mM glucose, 20 mM HEPES and 2.5 mM probenecid (pH 7.4 adjusted with 1.0 M NaOH). […] All experiments were performed at 37° C. For agonism measurements the test compounds dissolved in Probenecid-Ringer were applied by FLIPR Tetra at 15 s time point. In order to determine antagonism, the cells were stimulated either with 100 nM adrenaline or noradrenaline and the test compounds were added to the cells 2 h before the experiment with the FLIPR Calcium 6 Assay reagent. […] Typically, there were four replicates at each concentration and six different dose levels. […] The minimum fluorescence value subtracted from the maximum value for each well was used in the calculations. ScreenWorks version 4.0 software was used for analyzing the results. Fitting of the antagonist dose-response results was performed with the free Hill equation and the IC50 values were fitted with IDBS XE software using model 200: y=(A+(B/(1+((x/C)̂D)))), where A is the curve maximum, B the curve minimum and C equals the EC50 value. D is slope factor (Hill). Kb was calculated with the Cheng-Prusoff equation Kb=A/((B/C)+1), where A is the IC50 of antagonist, B the concentration of agonist and C the EC50 of the agonist.

Test [2] addresses T2, human alpha2C receptors (Homo sapiens, UniProt P18825).
T2 sequence (P18825 1-462): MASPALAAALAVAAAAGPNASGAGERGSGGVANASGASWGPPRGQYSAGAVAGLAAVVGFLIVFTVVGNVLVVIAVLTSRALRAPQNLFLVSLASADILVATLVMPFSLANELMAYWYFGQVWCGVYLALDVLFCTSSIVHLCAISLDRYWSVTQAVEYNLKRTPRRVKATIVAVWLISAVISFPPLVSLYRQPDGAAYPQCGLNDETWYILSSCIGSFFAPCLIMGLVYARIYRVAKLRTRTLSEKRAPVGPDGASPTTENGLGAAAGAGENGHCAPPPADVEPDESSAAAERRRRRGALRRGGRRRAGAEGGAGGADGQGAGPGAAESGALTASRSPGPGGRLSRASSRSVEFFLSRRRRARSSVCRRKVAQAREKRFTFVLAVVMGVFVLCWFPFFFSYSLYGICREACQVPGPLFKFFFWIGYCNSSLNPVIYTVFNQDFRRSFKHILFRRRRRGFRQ
Kind of test: Determination of alpha2C antagonistic activity in vitro (FLIPR calcium assay). The note with it: for Kb: Alpha 2C Adrenaline Kb, Kb calculated from IC50 with the Cheng-Prusoff equation, adrenaline as agonist, CHO cells, human alpha2C.

For orientation: IC50 means the concentration that inhibits the measured activity by half. Consider `CN1C(=O)N([C@H]2CCCN(C[C@H]3COc4ccccc4O3)C2)CC1(C)C` [example 51, 1-((S)-1-(((S)-2,3-Dihydrobenzo[b][1,4]dioxin-2-yl)methyl)piperidin-3-yl)-3,4,4-trimethylimidazolidin-2-one], for which, in test [1], the IC50 is above 10000 nM and the Kb is above 449 nM. For the same molecule, in test [2], the 50% inhibitory concentration (IC50) was 0.11 nM and the Kb is 0.01 nM.

In test [1], `CN1CCCN([C@H]2CCCN(C[C@H]3COc4ccccc4O3)C2)C1=O` [example 54, 1-((S)-1-(((S)-2,3-Dihydrobenzo[b][1,4]dioxin-2-yl)methyl)piperidin-3-yl)-3-methyltetrahydropyrimidin-2(1H)-one] came in with a 50% inhibitory concentration (IC50) above 10000 nM and a Kb above 449 nM. In addition, in test [2], the 50% inhibitory concentration (IC50) was 4.95 nM and the Kb is 0.5 nM.

In test [1], `COc1cccc2c1CN([C@H]1CCCN(C[C@H]3COc4ccccc4O3)C1)C2=O` [example 55, 2-((S)-1-(((S)-2,3-Dihydrobenzo[b][1,4]dioxin-2-yl)methyl)piperidin-3-yl)-4-methoxyisoindolin-1-one] came in with an IC50 above 10000 nM and a Kb above 449 nM. Further, in test [2], the concentration for half-maximal inhibition (IC50) is 0.029 nM and the Kb was 0.003 nM.

In the case of `O=C1c2ccc(F)c(F)c2CN1[C@H]1CCCN(C[C@H]2COc3ccccc3O2)C1` [example 56, 2-((S)-1-(((S)-2,3-Dihydrobenzo[b][1,4]dioxin-2-yl)methyl)piperidin-3-yl)-4,5-difluoroisoindolin-1-one hydrochloride], in test [1], the IC50 is above 10000 nM and the Kb was above 449 nM. In addition, in test [2], the concentration for half-maximal inhibition (IC50) was 0.519 nM and the Kb was 0.052 nM.

`O=C1c2cccc(F)c2CN1[C@H]1CCCN(C[C@H]2COc3ccccc3O2)C1` [example 57, 2-((S)-1-(((S)-2,3-Dihydrobenzo[b][1,4]dioxin-2-yl)methyl)piperidin-3-yl)-4-fluoroisoindolin-1-one hydrochloride]: the concentration for half-maximal inhibition (IC50) in test [1] is above 10000 nM; in test [2] it was 1.54 nM. Also, the Kb is above 449 nM in test [1] and 0.15 nM in test [2].

In test [1], `O=C1c2ccc(F)cc2CN1[C@H]1CCCN(C[C@H]2COc3ccccc3O2)C1` [example 58, 2-((S)-1-(((S)-2,3-Dihydrobenzo[b][1,4]dioxin-2-yl)methyl)piperidin-3-yl)-5-fluoroisoindolin-1-one hydrochloride] returned an IC50 above 10000 nM and a Kb above 449 nM. Further, in test [2], the IC50 is 0.299 nM and the Kb was 0.03 nM.

Take `Cc1ccc2c(c1)CN([C@H]1CCCN(C[C@H]3COc4ccccc4O3)C1)C2=O` [example 59, 2-((S)-1-(((S)-2,3-Dihydrobenzo[b][1,4]dioxin-2-yl)methyl)piperidin-3-yl)-5-methylisoindolin-1-one formate]: in test [1], the IC50 was above 10000 nM and the Kb was above 449 nM. Also, in test [2], the half-maximal inhibitory concentration (IC50) is below 0.01 nM and the Kb was below 0.001 nM.

For the molecule `O=C1c2ccc(Cl)cc2CN1[C@H]1CCCN(C[C@H]2COc3ccccc3O2)C1` [example 60, 5-Chloro-2-((S)-1-(((S)-2,3-dihydrobenzo[b][1,4]dioxin-2-yl)methyl)piperidin-3-yl)isoindolin-1-one], in test [1], the half-maximal inhibitory concentration (IC50) is above 10000 nM and the Kb was above 449 nM. Besides, in test [2], the IC50 is below 0.1 nM and the Kb is below 0.01 nM.

In test [1], `O=C1c2ccccc2C(=O)N1[C@H]1CCCN(C[C@H]2COc3ccccc3O2)C1` [example 61, 2-((S)-1-(((S)-2,3-Dihydrobenzo[b][1,4]dioxin-2-yl)methyl)piperidin-3-yl)isoindoline-1,3-dione] had a half-maximal inhibitory concentration (IC50) above 10000 nM and a Kb above 449 nM. Moreover, in test [2], the IC50 was 0.062 nM and the Kb was 0.006 nM.

In the case of `O=C1c2ccc(F)cc2C(=O)N1[C@H]1CCCN(C[C@H]2COc3ccccc3O2)C1` [example 62, 2-((S)-1-(((S)-2,3-Dihydrobenzo[b][1,4]dioxin-2-yl)methyl)piperidin-3-yl)-5-fluoroisoindoline-1,3-dione], in test [1], the IC50 is above 10000 nM and the Kb was above 449 nM. Also, in test [2], the IC50 was below 0.1 nM and the Kb was below 0.01 nM.

On to `O=C1c2cccc(F)c2C(=O)N1[C@H]1CCCN(C[C@H]2COc3ccccc3O2)C1` [example 63, 2-((S)-1-(((S)-2,3-Dihydrobenzo[b][1,4]dioxin-2-yl)methyl)piperidin-3-yl)-4-fluoroisoindoline-1,3-dione hydrochloride], for which the IC50 was above 10000 nM in test [1] and below 0.1 nM in test [2]. Also, the values for the Kb in test [1] and in test [2] were above 449 nM and below 0.01 nM, respectively.

In the case of `O=C1c2cccc(Cl)c2C(=O)N1[C@H]1CCCN(C[C@H]2COc3ccccc3O2)C1` [example 64, 4-Chloro-2-((S)-1-(((S)-2,3-dihydrobenzo[b][1,4]dioxin-2-yl)methyl)piperidin-3-yl)isoindoline-1,3-dione hydrochloride], in test [1], the 50% inhibitory concentration (IC50) was above 10000 nM and the Kb is above 449 nM. In addition, in test [2], the IC50 was 43.5 nM and the Kb was 4.38 nM.

With `COc1cccc2c1C(=O)N([C@H]1CCCN(C[C@H]3COc4ccccc4O3)C1)C2=O` [example 65, 2-((S)-1-(((S)-2,3-Dihydrobenzo[b][1,4]dioxin-2-yl)methyl)piperidin-3-yl)-4-methoxyisoindoline-1,3-dione], in test [1], the IC50 is above 10000 nM and the Kb was above 449 nM. For the same molecule, in test [2], the IC50 is below 0.1 nM and the Kb is below 0.01 nM.

For the molecule `COc1ccc2c(c1OC)C(=O)N([C@H]1CCCN(C[C@H]3COc4ccccc4O3)C1)C2=O` [example 66, 2-((S)-1-(((S)-2,3-Dihydrobenzo[b][1,4]dioxin-2-yl)methyl)piperidin-3-yl)-4,5-dimethoxyisoindoline-1,3-dione hydrochloride], in test [1], the IC50 was above 10000 nM and the Kb was above 449 nM. Further, in test [2], the half-inhibitory concentration (IC50) is below 0.01 nM and the Kb was below 0.001 nM.

In the case of `N#Cc1ccc2c(c1)CN([C@H]1CCCN(C[C@H]3COc4ccccc4O3)C1)C2=O` [example 67, 2-((S)-1-(((S)-2,3-Dihydrobenzo[b][1,4]dioxin-2-yl)methyl)piperidin-3-yl)-1-oxoisoindoline-5-carbonitrile], in test [1], the IC50 was above 10000 nM and the Kb was above 449 nM. Moreover, in test [2], the half-inhibitory concentration (IC50) amounted to 1.3 nM and the Kb was 0.132 nM.

As for `COc1cc2c(cc1OC)C(=O)N([C@H]1CCCN(C[C@H]3COc4ccccc4O3)C1)C2` [example 68, 2-((S)-1-(((S)-2,3-Dihydrobenzo[b][1,4]dioxin-2-yl)methyl)piperidin-3-yl)-5,6-dimethoxyisoindolin-1-one], in test [1], the concentration for half-maximal inhibition (IC50) was above 10000 nM and the Kb was above 449 nM. Further, in test [2], the IC50 stood at 2.79 nM and the Kb was 0.282 nM.

Turning to `COc1ccc2c(c1)CN([C@H]1CCCN(C[C@H]3COc4ccccc4O3)C1)C2=O` [example 69, 2-((S)-1-(((S)-2,3-Dihydrobenzo[b][1,4]dioxin-2-yl)methyl)piperidin-3-yl)-5-methoxyisoindolin-1-one], the results for the half-inhibitory concentration (IC50) in test [1] and in test [2] were above 10000 nM and 0.89 nM, respectively. The figures for the Kb in test [1] and in test [2] were above 449 nM and 0.09 nM, respectively.
